Measurements published in patent publication US6887882B2, “Pharmaceutical compositions comprising chelidonine or derivatives thereof” (priority 2002, dated 2005).
Where two headings read alike, the source gives them in different places.

Legend:
hKv1.5 channel = biological target: T1, hKv1.5 channel (Homo sapiens, UniProt P22460); assay: Block of hKv1.5 channel currents expressed in Ltk-cells (whole cell patch clamp); assay type: cell-based; conditions: for Hill value: from concentration-response curves using the Hill equation; for IC50 / type of hKv1.5 block / effect on the hKv1.5 channel currents: hKv1.5 expressed in Ltk-cells; for IC50: steady-state current at end of +50 mV depolarizing pulse, holding -80 mV; for type of hKv1.5 block: FIGS. 1a to 1e; for effect on the hKv1.5 channel currents: FIGS. 1a to 1d
T1 construct: expressed in transfected cells; host or cells: mouse Ltk- cells (pMSVneo vector, G418 selection)
T1 sequence (P22460 whole entry): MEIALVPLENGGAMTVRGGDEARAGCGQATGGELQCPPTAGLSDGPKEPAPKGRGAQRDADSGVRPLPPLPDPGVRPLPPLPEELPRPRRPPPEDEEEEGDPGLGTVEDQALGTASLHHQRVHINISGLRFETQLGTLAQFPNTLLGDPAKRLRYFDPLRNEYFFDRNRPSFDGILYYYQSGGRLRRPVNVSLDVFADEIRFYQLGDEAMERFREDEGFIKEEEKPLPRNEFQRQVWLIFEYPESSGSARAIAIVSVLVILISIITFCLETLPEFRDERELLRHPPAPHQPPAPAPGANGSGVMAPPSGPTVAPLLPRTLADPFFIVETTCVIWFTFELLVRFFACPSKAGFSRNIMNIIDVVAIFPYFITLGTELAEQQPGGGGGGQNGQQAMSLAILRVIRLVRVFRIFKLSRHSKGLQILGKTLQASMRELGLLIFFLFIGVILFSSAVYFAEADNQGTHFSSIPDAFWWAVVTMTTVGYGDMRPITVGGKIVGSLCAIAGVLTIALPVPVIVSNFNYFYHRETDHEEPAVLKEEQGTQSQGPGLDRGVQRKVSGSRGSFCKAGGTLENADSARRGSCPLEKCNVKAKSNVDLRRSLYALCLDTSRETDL
Experimental: Cell line selectively expressing a specific cardiac K^+ channel gene was prepared according to the method described in the thesis (Yang, et al., Inhibition of cardiac potassium currents by the vesnarinone analog OPC-18790: comparison with quinidine and dofetilide. J Pharmacol Exp Ther. 1997, 280: 1170-1175; Kwak, et al., Phosphorylation is required for alteration of Kv1.5 K^+ channel function by the Kvbeta 1.3 subunit. J Biol Chem 1999, 274: 25355-25361).
First, cDNAs for human cardiac K^+ channel genes such as hKv 1.5 and HERG were subcloned into pMSVneo which contain dexamethasone-inducible murine mammary tumor virus promoter controlling transcription of the inserted cDNA and a gene conferring neomycin resistance driven by the SV40 early promotor. The cDNA-containing expression vector was transfected into mouse Ltk-cells with lipofectamine. After 24 hours, the cells selection with […] of G418 was performed for 2 weeks or until discrete foci formed. Individual foci were isolated, maintained in 0.25 μg/ml of G418, and screened by Norhtern analysis and electrophysiological analysis. Transfected cells were cultured in Dulbeco's modified Eagle medium (DMEM) supplemented with 10% horse serum and 0.25 μg/ml of G418, under 5% CO2. Transiently transfected cells were cultured in DMEM media supplemented with only 10% horse serum, differently from stable cell lines.
Currents in human atrial myocytes and cell lines were recorded by using the whole cell configuration of the gigaohm-seal patch clamp techniques (Kwak, et al., Phosphorylation is required for alteration of Kv1.5 K^+ channel function by the Kvbeta 1.3 subunit. J Biol Chem 1999, 274: 25355-25361). First, electrical signals were amplified with a patch clamp amplifier (Axon Instruments, Axopatch-1D, Foster, USA). Currents were digitized by a signal converter (Digidata 1200, Axon Instruments) and stored on the hard disk of a computer. The micropipette with a resistance of 1˜2MΩ (Kimax-51, 1.5=14 1.8×10 mm) for current recording, was pulled out by a 2-stage pipette puller (Narishige, PP-83). The intracellular pipette-filling solution for whole cell mode contained 100 mM KCl, 10 mM HEPES, 5 mM K4BAPTA, 5 mM K2ATP and 1 mM MgCl2 (pH 7.2). The extracellular solution contained 130 mM NaCl, 4 mM KCl, 1.8 mM CaCl2, 1 mM MgCl2, 10 mM HEPES and 10 mM glucose (pH 7.35).
The current traces were recorded with a depolarizing pulse of +50 mV from a holding potential of −80 mV, followed by a repolarizing pulse of −50 mV in the Ltk-cells. To observe the concentration-dependent block of hKv1.5 channel currents by each compound, steady-state currents taken at the end of the depolarizing pulse of +50 mV were normalized to the control obtained in the absence of each compound
FIG. 1e is concentration-response curves showing the relative steady-state currents obtained at the end of the depolarizing pulse against the concentration of each compound. Data were fitted with a Hill equation.
IC50 values (50% inhibitory concentration, μM) of compounds 1˜14 on the hKv1.5 channel currents were determined, and Hill values were calculated from the concentration-response curves of the respective compounds using the Hill equation.

rabbit atrial tissue = assay: Frequency-dependent effects on action potentials of rabbit atrial tissue (APD90); assay type: cell-based; conditions: varied stimulus frequencies, FIG. 5c; compared to chelidonine
Experimental: Action potentials in rabbit atrial tissue were recorded according to the method described in thesis by Kwak, et al. (A newly synthesized benzopyran derivatives, activates the cardiac ATP-sensitive K^+ channel. J Pharmacol Exp Ther 1995, 275: 807-812).
Male New Zealand white rabbits weighing about 2 kg were stunned with a blow on the head and hearts were rapidly excised and transferred to a dissection bath filled with Tyrode's solution saturated with 97% O2 and 3% CO2 gas mixture and each dissected tissue was mounted horizontally in a narrow channel of a tissue chamber and continuously superfused with the Tyrode's solution at 37° C. The action potentials were elicited by stimulating the cardiac cells with square pulses (1˜5 Hz, 1-ms duration, 20-30% above threshold voltage) by a stimulator. […] Tracings on the oscilloscope screen were photographed on a 35-mm film and also recorded on a physiograph (RS 3400, Gould, Cleveland, Ohio). APD90 was used for the comparison of action potential durations. APD90 represents the action potential duration at 90% repolarization, relative to the action potential duration at maximum 100% depolarization. Images on the oscilloscope screen were captured on Polaroid camera.
We tested whether the effect of chelidonine on action potentials of rabbit atrial myocytes are frequency-dependent or not.
The relative action potential durations were normalized to the APD90 value in the absence of chelidonine at each frequency. At the stimulus frequency of 1, 2, 3, 4 and 5 Hz, 1 μM chelidonine increased APD90 by 13.0±8.1% (n=5), 14.5±7.9% (n=5), 16.5±2.2% (n=5) 28.2±0.4% (n=5) or 33.0±0.3 1% (n=5) of the control APD90 in the absence of chelidonine at each frequency, respectively.

mouse = conditions: in vivo, cited from earlier work

Row | SMILES | Hill value (hKv1.5 channel) | IC50 (hKv1.5 channel) | type of hKv1.5 block (hKv1.5 channel) | effect on the hKv1.5 channel currents (hKv1.5 channel) | action potential duration prolongation (rabbit atrial tissue) | toxicity (mouse; iv) | toxicity (mouse; sc)
1 | CN1Cc2c(ccc3c2OCO3)[C@@]2(C)[C@@H](O)Cc3cc4c(cc3[C@@H]12)OCO4 [Compound 13, [5bR-(5bα,6β,12bα)]-5b,6,7,12b,13, 14-hexahydro-5b,13-dimethyl[1,3]-benzodioxolo[5,6c]-1,3-dioxolo[4,5-i] phenanthridin-6-ol] | 1.34 |  |  |  |  |  | 
2 | CN1Cc2c(ccc3c2OCO3)[C@H]2[C@@H](OC(N)=O)Cc3cc4c(cc3[C@H]21)OCO4 [Compound 12, {[5bR-(5bα,6β,12bα)]-5b,6,7,12b,13, 14-hexahydro-13-methyl[1,3]benzodioxolo[5,6c]-1,3-dioxolo[4,5-i]phenanthridin-6-yl}-carbamate] | 1.12 | 1.9 ± 1 µM |  |  |  |  | 
3 | CN1Cc2c(ccc3c2OCO3)[C@H]2[C@@H](OC(=O)c3ccccc3)Cc3cc4c(cc3[C@H]21)OCO4 [Compound 5, {[5bR-(5bα,6β,12bα)]-5b,6,7,12b,13, 14-hexahydro-13-methyl[1,3]benzodioxolo[5,6c]-1,3-dioxolo[4,5-i]phenanthridin-6-yl}-benzoate] | 1.18 | 29.3 ± 4.2 µM | showed the tonic blocking effects | concentration-dependent inhibitory effects | increased the action potential durations in the similar manner as chelidonine, but to a lesser extent |  | 
4 | Cc1ccc(S(=O)(=O)O[C@H]2Cc3cc4c(cc3[C@@H]3[C@H]2c2ccc5c(c2CN3C)OCO5)OCO4)cc1 [Compound 11, {[5bR-(5bα,6β,12bα)]-5b,6,7,12b,13, 14-hexahydro-13-methyl[1,3]benzodioxolo[5,6c]-1,3-dioxolo[4,5-i]phenanthridin-6-yl}-4-methylbenzenesulfonate] | 1.19 | 29.6 ± 3.7 µM |  |  |  |  | 
5 | CO[C@H]1Cc2cc3c(cc2[C@@H]2[C@H]1c1ccc4c(c1CN2C)OCO4)OCO3 [Compound 2, [5bR-(5bα,6β,12bα)]-5b,6,7,12b,13, 14-hexahydro-6-methoxy-13-methyl[1,3]-benzodioxolo[5,6c]-1,3-dioxolo[4,5-i]phenanthridine] | 1.29 | 45.2 ± 4.1 µM |  |  |  |  | 
6 | CN1Cc2c(ccc3c2OCO3)[C@H]2CCc3cc4c(cc3[C@H]21)OCO4 [Compound 8, [5bR-(5bα,6β,12bα)]-5b,6,7,12b,13, 14-hexahydro-13-methyl[1,3] benzodioxolo[5,6c]-1,3-dioxolo[4,5-i]phenanthridine] | 1.38 | 65.6 ± 4.2 µM |  |  |  |  | 
7 | C[n+]1cc2c3c(ccc2c2ccc4cc5c(cc4c21)OCO5)OCO3 [Compound 14, 13-methyl[1,3]benzodioxolo[5,6c]-1,3-dioxolo[4,5-i]phenanthridinium] | 1.39 | 13 ± 3.8 µM | slowed the channel activation | concentration-dependent inhibitory effects | increased the action potential durations in the similar manner as chelidonine, but to a lesser extent | 15.9 mg/kg | 102.0 mg/kg
8 | CN1Cc2c(ccc3c2OCO3)[C@H]2[C@@H](OCc3ccccc3)Cc3cc4c(cc3[C@H]21)OCO4 [Compound 3, [5bR-(5bα,6β,12bα)]-5b,6,7,12b,13, 14-hexahydro-6-benzyloxy-13-methyl[1,3]benzodioxolo[5,6c]-1,3-dioxolo[4,5-i]phenanthridine] | 1.37 | 59.3 ± 3 µM |  |  |  |  | 
9 | CN1Cc2c(ccc3c2OCO3)C2=CCc3cc4c(cc3[C@H]21)OCO4 [Compound 7, (12bR)-7,12b,13,14-tetrahydro-13-methyl[1,3]-benzodioxolo[5,6c]-1,3-dioxolo[4,5-i]phenanthridine] | 0.98 | 19.9 ± 3.5 µM |  |  |  |  | 
10 | CN1Cc2c(ccc3c2OCO3)-c2ccc3cc4c(cc3c21)OCO4 [Compound 6, (12bR)-13,14-dihydro-13-methyl [1,3]benzodioxolo[5,6c]-1,3-dioxolo[4,5-i]phenanthridine] | 1.09 | 26.4 ± 3.9 µM |  |  |  |  | 
11 | CC(=O)O[C@H]1Cc2cc3c(cc2[C@@H]2[C@H]1c1ccc4c(c1CN2C)OCO4)OCO3 [Compound 4, {[5bR-(5bα,6β,12bα)]-5b,6,7,12b,13, 14-hexahydro-13-methyl[1,3]benzodioxolo[5,6c]-1,3-dioxolo[4,5-i]phenanthridin-6-yl}-acetate] | 1.34 | 11.3 ± 3.3 µM | predominantly blocked the open ion channels | concentration-dependent inhibitory effects | increased the action potential durations in the similar manner as chelidonine, but to a lesser extent |  | 
12 | CN1Cc2c(ccc3c2OCO3)[C@H]2[C@@H](OP(=O)(Oc3ccccc3)Oc3ccccc3)Cc3cc4c(cc3[C@H]21)OCO4 [Compound 9, {[5bR-(5bα,6β,12bα)]-5b,6,7,12b,13, 14-hexahydro-13-methyl[1,3]benzodioxolo[5,6c]-1,3-dioxolo[4,5-i]phenanthridin-6-yl}-diphenylphosphate] | 1.26 |  |  |  |  |  | 
13 | CN1Cc2c(ccc3c2OCO3)[C@H]2[C@@H](OS(C)(=O)=O)Cc3cc4c(cc3[C@H]21)OCO4 [Compound 10, {[5bR-(5bα,6β,12bα)]-5b,6,7,12b,13, 14-hexahydro-13-methyl[1,3]benzodioxolo[5,6c]-1,3-dioxolo[4,5-i]phenanthridin-6-yl}-methanesulfonate] | 1.20 | 31.3 ± 3.5 µM |  |  |  |  | 
